From patent US20190350944A1, “NEUROACTIVE STEROID SOLUTIONS AND THEIR METHODS OF USE” (Sage Therapeutics, Inc., priority 2015, published 2019)

Experiment: Degradation pathway for allopregnanolone in SBECD formulations
Type: physicochemical
Text: FIG. 1 summarizes the two major degradation pathways found for allopregnanolone in SBECD formulations.

In the case of `CC(=O)[C@H]1CC[C@H]2[C@@H]3CC[C@H]4C[C@H](O)CC[C@]4(C)[C@H]3CC[C@]12C` [allopregnanolone, 3 alpha-hydroxy-5 alpha-pregnan-20-one], the major degradation pathway (pH of ~6 or less) is reported as “epimerization of allopregnanolone to compound 1269” and the major degradation pathway (pH of ~6 or more) is reported as “oxidation of allopregnanolone to compound 136”.
